Values joined by “and” are separate entries in the source; they are usually repeats but may differ in a detail not shown here. Equal entries are not always repeated.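 In this assay, cells in 96-well plates receive the compound at five concentrations for 48 hours. Endpoints are linearly interpolated between the surrounding concentrations. Here, GI50 denotes the concentration required for 50% inhibition of growth. At the TGI there is no net growth.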
What was measured:
Assay in all cases: growth of human tumour cells (NCI), 48 h
RXF 393 renal = test system: RXF 393 renal
UACC-257 melanoma = test system: UACC-257 melanoma
SF-268 CNS = test system: SF-268 CNS
NCI-H23 lung = test system: NCI-H23 lung
SK-MEL-5 melanoma = test system: SK-MEL-5 melanoma
SR leukemia = test system: SR leukemia
NCI-H460 lung = test system: NCI-H460 lung
LOX IMVI melanoma = test system: LOX IMVI melanoma
SN12C renal = test system: SN12C renal
OVCAR-4 ovarian = test system: OVCAR-4 ovarian

## N/C(=N\OC(=O)c1ccccc1)C(C(=O)NOC(=O)c1ccccc1)C1CCCCC1 (stereo unspecified)
RXF 393 renal
  GI50: 8.59 µM
  TGI: 65.1 µM
UACC-257 melanoma
  GI50: 13.7 µM
  TGI: 28.7 µM
SF-268 CNS
  GI50: 2.39 µM
  TGI: 6.7 µM
NCI-H23 lung
  GI50: 9.28 µM
  TGI: 24.1 µM
SK-MEL-5 melanoma
  GI50: 10.3 µM
  TGI: 22.8 µM
SR leukemia
  GI50: 1.99 µM
  TGI: 4.99 µM
NCI-H460 lung
  GI50: 2.85 µM
  TGI: 9.61 µM
LOX IMVI melanoma
  GI50: 0.343 µM
  TGI: 1.38 µM
SN12C renal
  GI50: 13.4 µM
  TGI: 69.4 µM
OVCAR-4 ovarian
  GI50: 9.4 µM
  TGI: 37.6 µM

## CS(=O)(=O)c1ccc(Cl)c([N+](=O)[O-])c1
RXF 393 renal
  GI50: 11.9 µM
  TGI: 24.5 µM
UACC-257 melanoma
  GI50: 15.8 µM
  TGI: 31.6 µM
SF-268 CNS
  GI50: 18.5 µM
  TGI: 36.3 µM
NCI-H23 lung
  GI50: 16.5 µM
  TGI: 33.5 µM
SK-MEL-5 melanoma
  GI50: 13 µM
  TGI: 25.7 µM
SR leukemia
  GI50: 15.3 µM
  TGI: 46.6 µM
NCI-H460 lung
  GI50: 18.3 µM
  TGI: 40.8 µM
LOX IMVI melanoma
  GI50: 10.1 µM
  TGI: 23.4 µM
SN12C renal
  GI50: 13.8 µM
  TGI: 28.2 µM
OVCAR-4 ovarian
  GI50: 2.02 µM
  TGI: 3.9 µM

## CCc1nc(N)nc(N)c1-c1ccc([N+](=O)[O-])c(NCc2ccccc2)c1
RXF 393 renal
  TGI: 52.7 µM
UACC-257 melanoma
  TGI: 30.9 µM
SF-268 CNS
  TGI: 40.3 µM
NCI-H23 lung
  TGI: > 60.6 µM
SK-MEL-5 melanoma
  TGI: 22.9 µM
SR leukemia
  TGI: 31.1 µM
NCI-H460 lung
  TGI: 20.2 µM
LOX IMVI melanoma
  TGI: 45.4 µM
SN12C renal
  TGI: 44.5 µM
OVCAR-4 ovarian
  TGI: 58.1 µM

## CC(=O)N(CCN)CCN
RXF 393 renal
  TGI: > 10 µM
UACC-257 melanoma
  TGI: > 10 µM
SF-268 CNS
  TGI: > 100 µM
NCI-H23 lung
  TGI: > 10 µM
SK-MEL-5 melanoma
  TGI: > 100 µM
SR leukemia
  TGI: > 10 µM
NCI-H460 lung
  TGI: > 10 µM
LOX IMVI melanoma
  TGI: > 10 µM
SN12C renal
  TGI: > 10 µM
OVCAR-4 ovarian
  TGI: > 10 µM

## C=C(C)C1CC2C(C)=C(OC(C)=O)C1n1c(=O)c3cc4ccccc4cc3c(=O)n12 (stereo unspecified)
RXF 393 renal
  TGI: > 90.9 µM
UACC-257 melanoma
  TGI: > 100 µM
SF-268 CNS
  TGI: > 100 µM
NCI-H23 lung
  TGI: > 100 µM
SK-MEL-5 melanoma
  TGI: > 100 µM
SR leukemia
  TGI: > 93 µM
NCI-H460 lung
  TGI: > 100 µM
LOX IMVI melanoma
  TGI: > 100 µM
SN12C renal
  TGI: > 100 µM
OVCAR-4 ovarian
  TGI: > 100 µM

## CSc1ccc(/C=C2\CNC/C(=C\c3ccc(SC)cc3)C2=O)cc1
RXF 393 renal
  GI50: 74 µM and 10.8 µg/mL
  TGI: 81.1 µM and 34.2 µg/mL
UACC-257 melanoma
  GI50: 150 µg/mL
  TGI: > 371 µM and 150 µg/mL
SF-268 CNS
  GI50: 44 µg/mL
  TGI: > 141 µM and 150 µg/mL
NCI-H23 lung
  GI50: 21.2 µg/mL
  TGI: > 130 µM and 83.6 µg/mL
SK-MEL-5 melanoma
  GI50: 150 µg/mL
  TGI: > 371 µM and 150 µg/mL
SR leukemia
  GI50: 23.3 µM
  TGI: 67.8 µM and > 190 µM
NCI-H460 lung
  GI50: 114 µg/mL
  TGI: > 371 µM and 150 µg/mL
LOX IMVI melanoma
  GI50: 7.76 µM and 150 µg/mL
  TGI: > 371 µM and 150 µg/mL
SN12C renal
  GI50: 150 µg/mL
  TGI: > 371 µM and 150 µg/mL
OVCAR-4 ovarian
  GI50: > 371 µM and 18.7 µg/mL
  TGI: > 371 µM and 28.7 µg/mL

## Nc1c(C(=O)Nc2ccc([As](=O)(O)O)cc2)cnc2nnnn12
RXF 393 renal
  TGI: > 100 µM
UACC-257 melanoma
  TGI: > 100 µM
SF-268 CNS
  TGI: > 100 µM
NCI-H23 lung
  TGI: > 100 µM
SK-MEL-5 melanoma
  TGI: > 100 µM
SR leukemia
  TGI: > 100 µM
NCI-H460 lung
  TGI: > 100 µM
LOX IMVI melanoma
  TGI: > 100 µM
SN12C renal
  TGI: > 100 µM
OVCAR-4 ovarian
  TGI: > 100 µM

## COc1cc(C2c3cc4c(cc3[C@@H](Nc3ccc(N(C)C)cc3)[C@H]3COC(=O)C23)OCO4)cc(OC)c1O (stereo partly specified)
RXF 393 renal
  TGI: 4.33 µM
UACC-257 melanoma
  GI50: 10.2 µM
  TGI: 11.2 µM and 28.8 µM
SF-268 CNS
  GI50: 3.13 µM
  TGI: 4.32 µM and 16.6 µM
NCI-H23 lung
  GI50: 0.388 µM
  TGI: 0.717 µM and 3.18 µM
SK-MEL-5 melanoma
  GI50: 1.12 µM
  TGI: 2.46 µM and 4.52 µM
SR leukemia
  TGI: 0.924 µM
NCI-H460 lung
  GI50: < 0.0075 µM
  TGI: 1.88 µM and 10.4 µM
LOX IMVI melanoma
  TGI: 17.6 µM
SN12C renal
  GI50: 0.453 µM
  TGI: 2.41 µM and 3.64 µM
OVCAR-4 ovarian
  GI50: 13 µM
  TGI: 18.7 µM and 25.8 µM

## CC12CC3(C)CC(C)(C1)CC(N=[N+]=[N-])(C2)C3
RXF 393 renal
  TGI: > 100 µM
UACC-257 melanoma
  TGI: > 100 µM
SF-268 CNS
  TGI: > 100 µM
NCI-H23 lung
  TGI: > 100 µM
SK-MEL-5 melanoma
  TGI: > 100 µM
SR leukemia
  TGI: > 100 µM
NCI-H460 lung
  TGI: > 100 µM
LOX IMVI melanoma
  TGI: > 100 µM
SN12C renal
  TGI: > 100 µM
OVCAR-4 ovarian
  TGI: > 100 µM

## CC(O)CNC1=CC(=O)C(=O)c2ccccc21 (stereo unspecified)
RXF 393 renal
  TGI: > 100 µM
UACC-257 melanoma
  TGI: 30.3 µM
SF-268 CNS
  TGI: 33.9 µM
NCI-H23 lung
  TGI: 39.1 µM
SK-MEL-5 melanoma
  TGI: 15 µM
SR leukemia
  TGI: > 100 µM
NCI-H460 lung
  TGI: 30.6 µM
LOX IMVI melanoma
  TGI: 34.8 µM
SN12C renal
  TGI: 34.9 µM
OVCAR-4 ovarian
  TGI: 26 µM

## Cc1cc(Cl)ccc1NC(=O)C(=O)Cc1nc2ccc(C(=O)c3ccccc3)cc2[nH]c1=O
RXF 393 renal
  TGI: > 100 µM
UACC-257 melanoma
  TGI: > 100 µM
SF-268 CNS
  TGI: > 100 µM
NCI-H23 lung
  TGI: > 100 µM
SK-MEL-5 melanoma
  TGI: > 100 µM
SR leukemia
  TGI: > 100 µM
NCI-H460 lung
  TGI: > 100 µM
LOX IMVI melanoma
  TGI: > 100 µM
SN12C renal
  TGI: > 100 µM
OVCAR-4 ovarian
  TGI: > 100 µM

## COc1ccc(Cl)cc1Nc1nc(C(F)(F)F)ccc1C(=O)NN
RXF 393 renal
  GI50: 1.68 µM
  TGI: > 21.4 µM
UACC-257 melanoma
  GI50: 3.87 µM
  TGI: > 30.2 µM
SF-268 CNS
  GI50: 1.38 µM
  TGI: > 100 µM
NCI-H23 lung
  GI50: 9.11 µM
  TGI: > 49.5 µM
SK-MEL-5 melanoma
  GI50: 5.8 µM
  TGI: > 20.4 µM
SR leukemia
  GI50: 0.404 µM
  TGI: 3.56 µM
NCI-H460 lung
  GI50: 23 µM
  TGI: > 100 µM
LOX IMVI melanoma
  GI50: 2.57 µM
  TGI: > 65.4 µM
SN12C renal
  GI50: 11.4 µM
  TGI: > 100 µM
OVCAR-4 ovarian
  GI50: 3.21 µM
  TGI: > 100 µM

## NS(=O)(=O)c1ccc(N2Cc3cc(Cl)ccc3OC3=C2C(=O)N(CC2CCCCC2)C3=O)cc1
RXF 393 renal
  GI50: 0.495 µM
  TGI: 1.77 µM
UACC-257 melanoma
  GI50: 1.54 µM
  TGI: 3 µM
SF-268 CNS
  GI50: 1.22 µM
  TGI: 2.69 µM
NCI-H23 lung
  GI50: 1.64 µM
  TGI: 3.61 µM
SK-MEL-5 melanoma
  GI50: 1.77 µM
  TGI: 3.25 µM
SR leukemia
  GI50: 0.284 µM
  TGI: 0.839 µM
NCI-H460 lung
  GI50: 1.72 µM
  TGI: 4.04 µM
LOX IMVI melanoma
  GI50: 1.01 µM
  TGI: 2.32 µM
SN12C renal
  GI50: 1.01 µM
  TGI: 2.57 µM
OVCAR-4 ovarian
  GI50: 0.897 µM
  TGI: 2.46 µM

## CN1CCCN(CCNc2nccc(-c3c(-c4cccc(O)c4)nc4sccn34)n2)S1(=O)=O
RXF 393 renal
  GI50: 5.26 µM and 2.72 µM
  TGI: 31 µM and 21.6 µM
UACC-257 melanoma
  GI50: 0.132 µM and 1.01 µM
SF-268 CNS
  GI50: 17.7 µM
  TGI: > 100 µM
NCI-H23 lung
  GI50: 11.1 µM and 14.4 µM
  TGI: 37.8 µM and 72.9 µM
SK-MEL-5 melanoma
  GI50: 1.17 µM and 1.23 µM
  TGI: 11.2 µM and 13.8 µM
SR leukemia
  GI50: 4.57 µM and 2.85 µM
  TGI: 35.2 µM and 27.8 µM
NCI-H460 lung
  GI50: 4.41 µM and 4.72 µM
  TGI: 75 µM and > 75.9 µM
LOX IMVI melanoma
  GI50: 1.55 µM and 1.99 µM
  TGI: 16.7 µM and 21.5 µM
SN12C renal
  GI50: 8.55 µM and 6.23 µM
  TGI: 75 µM and > 100 µM
OVCAR-4 ovarian
  GI50: 6.72 µM and 8.49 µM
  TGI: 52.2 µM and > 100 µM

## COc1cc(-c2oc3ccccc3c(=O)c2O)cc(OC)c1OC
RXF 393 renal
  TGI: 42.6 µM
UACC-257 melanoma
  TGI: > 100 µM
SF-268 CNS
  TGI: > 100 µM
NCI-H23 lung
  TGI: > 100 µM
SK-MEL-5 melanoma
  TGI: > 100 µM
SR leukemia
  TGI: > 24.8 µM
NCI-H460 lung
  TGI: > 100 µM
LOX IMVI melanoma
  TGI: > 100 µM
SN12C renal
  TGI: > 100 µM
OVCAR-4 ovarian
  TGI: > 100 µM

Source: PubChem BioAssay (NCI)
